From paper PMC3923730 (Journal of Translational Medicine, 2014)
Several values for one entry are separate records, joined by “and”; a condition that tells them apart may be missing. Equal values may be shown once.

What was measured:
[1] = system: myocardial infarction model in rats; experiment: Myocardial infarction model in rats (35 min CAO, reperfusion, infarct size by TTC); type: in vivo; details: rat; for IS (% AAR) / IS (% LV) / IS (% Vehicle IS): 24 h reperfusion, mean ± S.E.M.; for reduction of infarct size compared to control: p < 0.001
Procedure: In all groups of rats, the left anterior descending coronary artery was occluded during 35 min and released for reperfusion as previously described. For the dose range testing, the vehicle (IL30) or TRO40303 solution in IL30 (stock solution diluted in IL30 to administer ~1.5 mL/kg in each group) at increasing doses (0.3, 1, 3 and 10 mg/kg) were administered as a 5 min infusion through the jugular vein starting 10 min before coronary artery reperfusion (CAR). To evaluate the therapeutic window, the vehicle or TRO40303 at 1 mg/kg were also administered either 10 min before coronary artery occlusion (CAO) or 10 min after CAR. Infarct size was determined by triphenyltetrazolium chloride (TTC) staining and was calculated as a percentage of the area at risk (AAR), 24 h after reperfusion. For the dose range experiment, infarct size was expressed for all doses as a percent of the vehicle group infarct size.

[2] = system: healthy male and post-menopausal female subjects; experiment: Phase I trial safety and tolerability; type: in vivo; details: human
Procedure: A randomized, double-blind, placebo controlled study was performed to investigate the safety, tolerability and pharmacokinetics of single i.v. ascending doses of TRO40303 in healthy male and post-menopausal female subjects. The choice of the dose and flow rate escalation process is explained in the Result section. Seventy-two healthy volunteers were randomized, with 18 receiving a placebo and 54 an active liposomal formulation containing 20 mg/mL TRO40303 at final doses ranging from 0.5, 1, 2, 3.5, 6, 10 to 13 mg/kg with escalating flow rates from 0.04 mL/min to 35 mL/min. Within each group, 3 or 6 subjects received TRO40303 and 1 or 2 subjects received the same volume of placebo. The sample size was based on the number of doses and flow rates to be investigated. The 6 verum/2 placebo ratio per group is widely used in single ascending dose studies and provides adequate safety and pharmacokinetic information. The 3 verum/1 placebo ratio used in the last groups was chosen only to explore additional flow rates at previously studied doses.
Continuous recording of adverse events, continuous blood pressure monitoring for 2 hours after dosing and 12-lead electrocardiogram (ECG) at pre-dose, 15 min, 1 h, 4 h, 8 h, 24 h, 72 h and 96 h after end of infusion were performed. Vital signs, physical examination, haematology, blood biochemistry, urinalysis and haemostasis were performed before the study, at specific times after dosing and at the “end of study visit”, 7 days after administration. Blood biochemistry analysis included ASAT, ALAT, alkaline phosphatase, triglycerides, total cholesterol, HDL-cholesterol and LDL-cholesterol.

[3] = 0.3 mg/kg in IL30 i.v. 10 min before CAR
[4] = 1 mg/kg in IL30 i.v. 10 min before CAR
[5] = 3 mg/kg in IL30 i.v. 10 min before CAR
[6] = 10 mg/kg in IL30 i.v. 10 min before CAR
[7] = 0.5 mg/kg, 0.08 mL/min, back pain
[8] = 2 mg/kg, 0.64 mL/min, injection site haematoma
[9] = 3.5 mg/kg, 5 mL/min, presyncope
[10] = 6 mg/kg, 7.5 mL/min, infusion site inflammation
[11] = 6 mg/kg, 23 mL/min, vision blurred
[12] = single i.v. 0.5-13 mg/kg, flow rates 0.04-35 mL/min

## CC(C)CCC[C@@H](C)[C@H]1CC[C@H]2[C@@H]3CC/C(=N\O)[C@](C)(CCCO)[C@H]3CC[C@]12C [TRO40303, 3,5-seco-4-nor-cholestan-5-one oxime-3-ol]
[1]; [3]
  IS (% AAR): 26 ± 4 % AAR
  IS (% LV): 11 ± 2 % LV
  IS (% Vehicle IS): 77 ± 15 % Vehicle IS
[1]; 0.3 mg/kg in IL30 i.v. bolus 10 min before reperfusion, 24 h after reperfusion
  infarct size compared to vehicle: smaller but not significantly different
[1]; 1 mg/kg in IL30 10 min after the onset of CAR
  infarct size compared to vehicle: unchanged
[1]; 1 mg/kg in IL30 10 min before 35 min CAO
  reduction of infarct size compared to vehicle: 55%
[1]; [4]
  IS (% AAR): 19 ± 2 % AAR
  IS (% LV): 7 ± 1 % LV
  IS (% Vehicle IS): 56 ± 6 % Vehicle IS
[1]; 1 mg/kg in IL30 i.v. bolus 10 min before reperfusion, p < 0.01
  reduction of infarct size compared to vehicle: 40%
[1]; [5]
  IS (% AAR): 15 ± 2 % AAR
  IS (% LV): 6 ± 1 % LV
  IS (% Vehicle IS): 44 ± 7 % Vehicle IS
[1]; 3 mg/kg in IL30 i.v. bolus 10 min before reperfusion, 3 mg/kg
  reduction of infarct size compared to control: 50% and ~ 50%
[1]; [6]
  IS (% AAR): 25 ± 6 % AAR
  IS (% LV): 7 ± 2 % LV
  IS (% Vehicle IS): 45 ± 10 % Vehicle IS
[1]; 10 mg/kg in IL30 i.v. bolus 10 min before reperfusion, 10 mg/kg
  reduction of infarct size compared to control: 50% and ~ 50%
[2]; 0.5 mg/kg, 0.08 mL/min
  Emergent AEs: Description: 2 episodes of back pain
[2]; [7]
  Emergent AEs: Intensity: 1 Moderate and 1 Mild
  Emergent AEs: Relationship: Excluded
[2]; 2 mg/kg, 0.64 mL/min
  Emergent AEs: Description: 1 episode of injection site haematoma
[2]; [8]
  Emergent AEs: Intensity: Moderate
  Emergent AEs: Relationship: Excluded
[2]; 3.5 mg/kg, 5 mL/min
  Emergent AEs: Description: 1 episode of presyncope
[2]; [9]
  Emergent AEs: Intensity: Moderate
  Emergent AEs: Relationship: Unlikely
[2]; 6 mg/kg, 7.5 mL/min
  Emergent AEs: Description: 1 episode of infusion site inflammation
[2]; [10]
  Emergent AEs: Intensity: Moderate
  Emergent AEs: Relationship: Probable
[2]; 6 mg/kg, 23 mL/min
  Emergent AEs: Description: 1 episode of vision blurred
[2]; [11]
  Emergent AEs: Intensity: Moderate
  Emergent AEs: Relationship: Possible
[2]; any time, any dose group
  changes in vital signs, ECG parameters, laboratory tests or physical examinations: No relevant changes
[2]; [12]
  clinical tolerability: well tolerated clinically
  serious adverse events: no serious adverse events
